In ChEMBL document CHEMBL1137714, “Primaquine revisited six decades after its discovery” (Eur J Med Chem, 2009):

Key:
[1] = target: Acetylcholinesterase (Homo sapiens) (UniProt P22303); experiment: Inhibition of human erythrocyte AChE
Homo sapiens = organism: Homo sapiens; experiment: Toxicity in human assessed as incidence of abdominal cramps at 22.5 to 30 mg/day; assay type: organism-based, Abdomen; conditions: in vivo
[2] = Tmax in po dosed human; assay type: ADME, organism-based; conditions: in vivo

Chain of Acetylcholinesterase (Homo sapiens) (P22303 whole entry): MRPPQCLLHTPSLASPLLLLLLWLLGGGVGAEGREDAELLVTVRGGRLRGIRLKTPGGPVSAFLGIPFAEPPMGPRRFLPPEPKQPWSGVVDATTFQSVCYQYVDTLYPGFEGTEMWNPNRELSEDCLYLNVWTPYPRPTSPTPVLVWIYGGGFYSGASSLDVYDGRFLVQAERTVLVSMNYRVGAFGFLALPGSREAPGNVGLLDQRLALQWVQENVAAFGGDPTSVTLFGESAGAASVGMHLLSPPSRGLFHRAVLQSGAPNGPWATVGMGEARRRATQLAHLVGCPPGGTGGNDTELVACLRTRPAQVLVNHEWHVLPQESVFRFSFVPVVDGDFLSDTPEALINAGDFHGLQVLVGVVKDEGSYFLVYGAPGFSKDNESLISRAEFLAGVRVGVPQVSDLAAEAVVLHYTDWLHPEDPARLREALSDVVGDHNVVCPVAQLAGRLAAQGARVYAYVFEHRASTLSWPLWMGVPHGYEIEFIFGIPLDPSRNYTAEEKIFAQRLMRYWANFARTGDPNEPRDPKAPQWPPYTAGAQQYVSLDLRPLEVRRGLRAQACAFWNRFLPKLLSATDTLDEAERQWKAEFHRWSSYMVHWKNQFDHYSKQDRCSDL

Q: For `COc1cc(NC(C)CCCN)c2ncccc2c1` (stereo not drawn) [PRIMAQUINE], which IC33 [1] is on record?
A: Its IC33 is 30 µM.

Q: And the Activity (Homo sapiens)?
A: The Activity was 10%.

Q: What about the Tmax [2] of the same molecule?
A: Its Tmax is 12 h.
